Data: patent US20240269145A1, “USE OF INDOLE COMPOUND AS INHIBITORS OF FERROPTOSIS” (MITOIMMUNE THERAPEUTICS INC., priority 2023, published 2024)

Key:
Type in all cases: cell-based
ARPE-19 cells = experiment: Cytosolic lipid ROS after RSL3, Experimental Example 3-5; settings: ARPE-19, RSL3 0.3 μM, 2 hr
Experimental: [The source words this procedure for another cell line and says it was used here with some conditions changed.] (§1) Experimental Example 3-1: To confirm the protective effect against cytosolic lipid reactive oxygen species in lung epithelial cells, 2×10^5 MLE-12 cells were dispensed into each well of a 12-well plate and cultured for 18 to 24 hours. Each well was treated with Example Compound 1 and ferrostatin-1, which were diluted so that their final concentration became 0.01, 0.1, 1, and 10 μM, and culture was performed for 15 minutes. Afterwards, the cells were treated so that the final concentration of RSL3 became 1 μM, and cultured for 2 hours. To confirm the inhibitory effect against cytosolic lipid reactive oxygen species, BODIPY™ 581/591 C11 (lipid peroxidation sensor) [Invitrogen™; D3861] was used. According to the manufacturer's experimental method, BODIPY™ 581/591 C11 was diluted in the cell culture medium so that the final concentration became 5 μM, and the cells were treated therewith and allowed to react for 30 minutes to perform fluorescent staining. The MLE-12 cells fluorescently stained with BODIPY™ 581/591 C11 were detached from the 12-well plate using 0.25% Trypsin-EDTA and transferred to a microtube, and the fluorescence (excitation/absorption 500 to 650 nm/510 to 665 nm) was measured using BD FACSLyric™ to calculate the rate of change compared to the control group. […]

H9C2 cells = experiment: Cytosolic iron ion accumulation (FerroOrange, images) after erastin; settings: H9C2, erastin 1 μM, 7 hours; Example Compound 1 1 μM, DFO 10 or 100 μM
Experimental: (§2) To confirm the inhibitory effect against cytosolic iron ion accumulation in adrenal medulla cells and cardiac cells, 3×10^5 PC-12 cells and H9C2 cells were each dispensed into a 35 mm confocal dish and cultured for 18 to 36 hours. Each well was treated with the Example Compound 1, which was diluted so that the final concentration became 1 μM, and with DFO, which was diluted so that the final concentration became 10 µM and 100 μM, and culture was performed for 20 to 30 minutes. Afterwards, the PC-12 cells and H9C2 cells were each treated with RSL3 and erastin so that their final concentration became 0.3 µM and 1 μM, respectively, and cultured for 1 hour and 7 hours. To confirm the inhibitory effect against cytosolic iron ion accumulation, FerroOrange [DOJINDO; F374] was used. According to the manufacturer's experimental method, FerroOrange was diluted in the cell culture medium so that the final concentration became 1 μM, and the cells were treated therewith. […] The cells fluorescently stained with FerroOrange were observed using a fluorescence microscope [Carl Zeiss; Axio Observer 7] to investigate the change in fluorescence (excitation/absorption 580 nm/543 nm) compared to the control group (RSL3 and erastin untreated group).

PC-12 cells [1] = experiment: Cytosolic iron ion accumulation (FerroOrange, images) after RSL3; settings: PC-12, 0.3 μM RSL3, 1 hour; Example Compound 1 1 μM, DFO 10 or 100 μM
Experimental: as §2

MLE-12 cells [2] = experiment: Cytosolic lipid ROS (BODIPY 581/591 C11) after RSL3, Experimental Example 3-1; settings: MLE-12, 1 μM RSL3, 2 hours; tested 0.01-10 μM
Experimental: Experimental Example 3-1: To confirm the protective effect against cytosolic lipid reactive oxygen species in lung epithelial cells, 2×10^5 MLE-12 cells were dispensed into each well of a 12-well plate and cultured for 18 to 24 hours. Each well was treated with Example Compound 1 and ferrostatin-1, which were diluted so that their final concentration became 0.01, 0.1, 1, and 10 μM, and culture was performed for 15 minutes. Afterwards, the cells were treated so that the final concentration of RSL3 became 1 μM, and cultured for 2 hours. To confirm the inhibitory effect against cytosolic lipid reactive oxygen species, BODIPY™ 581/591 C11 (lipid peroxidation sensor) [Invitrogen™; D3861] was used. According to the manufacturer's experimental method, BODIPY™ 581/591 C11 was diluted in the cell culture medium so that the final concentration became 5 μM, and the cells were treated therewith and allowed to react for 30 minutes to perform fluorescent staining. The MLE-12 cells fluorescently stained with BODIPY™ 581/591 C11 were detached from the 12-well plate using 0.25% Trypsin-EDTA and transferred to a microtube, and the fluorescence (excitation/absorption 500 to 650 nm/510 to 665 nm) was measured using BD FACSLyric™ to calculate the rate of change compared to the control group.

MLE-12 cells [3] = experiment: Mitochondrial iron ion accumulation (Mito-FerroGreen, images) after RSL3; settings: MLE-12, RSL3 1 μM, 1 hour 30 minutes; Example Compound 1 1 μM, DFO 10 μM
Experimental: (§3) Experimental Example 9-1: To confirm the inhibitory effect against mitochondrial iron ion accumulation in lung epithelial cells and adrenal medulla cells, 3×10^5 MLE-12 cells and PC-12 cells were each dispensed into a confocal dish and cultured for 18 to 24 hours. Each well was treated with Example Compound 1 and DFO, which were diluted so that their final concentration became 1 μM and 10 μM, respectively, and culture was performed for 20 minutes. Afterwards, the MLE-12 cells were treated with RSL3 so that the final concentration became 1 μM, and cultured for 1 hour and 30 minutes, and the PC-12 cells were treated with RSL3 so that the final concentration became 0.3 μM, and cultured for 30 minutes. To confirm the inhibitory effect against mitochondrial iron ion accumulation, Mito-FerroGreen [DOJINDO; M489] was used. According to the manufacturer's experimental method, Mito-FerroGreen was diluted in the cell culture medium so that the final concentration became 1 μM, and the cells were treated therewith and allowed to react for 30 minutes to perform fluorescent staining. The cells fluorescently stained with Mito-FerroGreen were observed using a fluorescence microscope [Carl Zeiss; Axio Observer 7] to investigate the change in fluorescence (excitation/absorption 450 to 490 nm/500 to 550 nm) compared to the control group (RSL3 untreated group).

PC-12 cells [4] = experiment: as above; settings: PC-12, RSL3 0.3 μM, 30 minutes; Example Compound 1 1 μM, DFO 10 μM
Experimental: as §3

NIH/3T3 cells = experiment: Cytosolic lipid ROS after erastin, Experimental Example 3-3; settings: NIH/3T3, erastin 3 μM, 6 hr; tested 0.1, 1, 10 μM
Experimental: [The source words this procedure for another cell line and says it was used here with some conditions changed.] as §1

PC-12 cells [5] = experiment: Cytosolic lipid ROS after RSL3, Experimental Example 3-4; settings: PC-12, RSL3 0.3 μM, 1 hr
Experimental: [The source words this procedure for another cell line and says it was used here with some conditions changed.] as §1

MLE-12 cells [6] = experiment: Mitochondrial ROS (MitoSOX) after RSL3; settings: MLE-12, 1 μM RSL3, 2 hours
Experimental: To confirm the protective effect against mitochondrial reactive oxygen species in lung epithelial cells, 2×10^5 MLE-12 cells were dispensed into each well of a 12-well plate and cultured for 18 to 24 hours. Each well was treated with Example Compound 1 and ferrostatin-1, which were diluted so that their final concentration became 0.01, 0.1, 1, and 10 μM, and culture was performed for 15 minutes. Afterwards, the cells were treated so that the final concentration of RSL3 became 1 μM, and cultured for 2 hours. To confirm the inhibitory effect against mitochondrial reactive oxygen species, MitoSOX™ mitochondrial superoxide indicators (mitochondrial oxidative stress indicator) (MitoSOX) [Invitrogen™; C6827] was used. According to the manufacturer's experimental method, MitoSOX was diluted in the cell culture medium so that the final concentration became 5 μM, and the cells were treated therewith and allowed to react for 30 minutes to perform fluorescent staining. The MLE-12 cells fluorescently stained with MitoSOX were detached from the 12-well plate using 0.25% Trypsin-EDTA and transferred to a microtube, and the fluorescence (excitation/absorption ˜396 nm/610 nm) was measured using BD FACSLyric™ to calculate the rate of change compared to the control group (RSL3 untreated group).

HT-22 cells = experiment: Cytosolic lipid ROS after erastin, Experimental Example 3-2; settings: HT-22, erastin 1 μM, compound at 10 μM
Experimental: [The source words this procedure for another cell line and says it was used here with some conditions changed.] as §1

| SMILES | concentration at which lipid reactive oxygen species are inhibited (ARPE-19 cells) [µM] | cytosolic iron ion accumulation (images) (H9C2 cells) | cytosolic iron ion accumulation (images) (PC-12 cells [1]) | concentration at which cytosolic lipid reactive oxygen species were significantly decreased (MLE-12 cells [2]) [µM] | mitochondrial iron ion accumulation (images) (MLE-12 cells [3]) | mitochondrial iron ion accumulation (images) (PC-12 cells [4]) | concentration at which cytosolic lipid reactive oxygen species were decreased (NIH/3T3 cells) [µM] | concentration at which cytosolic lipid reactive oxygen species were significantly decreased (PC-12 cells [5]) [µM] | concentration at which mitochondrial reactive oxygen species were significantly decreased (MLE-12 cells [6]) [µM] | cytosolic lipid reactive oxygen species increased by erastin (HT-22 cells) | cytosolic lipid reactive oxygen species increased by erastin (HT-22 cells; 4 hours and 8 hours after treatment) |
| --- | --- | --- | --- | --- | --- | --- | --- | --- | --- | --- | --- |
| O=S1(=O)CCN(Cc2cc(NC3CCOCC3)c3[nH]c(-c4ccccc4)cc3c2)CC1 [Example 1, 5-[(1,1-dioxido-4-thiomorpholinyl)methyl]-2-phenyl-N-(tetrahydro-2H-pyran-4-yl)-1H-indole-7-amine] | 0.01 | decrease was confirmed | decrease was confirmed | 0.1 | decrease was confirmed | decrease was confirmed | 0.1 | 0.1 | 0.1 | inhibited | effectively inhibited |
| CCOC(=O)c1ccc(NC2CCCCC2)c(N)c1 [Fer-1, ferrostatin-1, reference compound] |  |  |  | 0.1 |  |  | 10 |  | 0.1 |  |  |
